“And” between values parts separate entries of the source, which are not always exact repeats. Equal entries are not always repeated. Inconclusive results and toxic doses are left out.
System: L1210 leukemia ip in BDF1 mice, survival T/C
Experiment: NCI In Vivo Anticancer Drug Screen. Data for tumor model L1210 Leukemia (intraperitoneal) in B6D2F1 (BDF1) mice
Details: endpoint: mean survival time, higher = longer survival
In short: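 Value reflects the ratio of survival in compound-treated mice to survival in vehicle-treated controls, with both groups carrying the same transplanted tumor.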

[1] = dose: 100.0 mg/kg/injection, schedule: Q04DX003 (ip), vehicle: saline with Tween-80
[2] = dose: 200.0 mg/kg/injection, schedule: Q04DX003 (ip), vehicle: saline with Tween-80
[3] = dose: 400.0 mg/kg/injection, schedule: Q04DX003 (ip), vehicle: saline with Tween-80
[4] = dose: 100.0 mg/kg/injection, schedule: Q04DX002 (ip), vehicle: Klucel (hydroxypropylcellulose) (HPC)
[5] = dose: 200.0 mg/kg/injection, schedule: Q04DX002 (ip), vehicle: Klucel (hydroxypropylcellulose) (HPC)
[6] = dose: 400.0 mg/kg/injection, schedule: Q04DX002 (ip), vehicle: Klucel (hydroxypropylcellulose) (HPC)
[7] = dose: 100.0 mg/kg/injection, schedule: Q01DX009 (ip), vehicle: Klucel (hydroxypropylcellulose) (HPC)
[8] = dose: 100.0 mg/kg/injection, schedule: Q04DX003 (ip), vehicle: saline
[9] = dose: 200.0 mg/kg/injection, schedule: Q01DX009 (ip), vehicle: Klucel (hydroxypropylcellulose) (HPC)
[10] = dose: 200.0 mg/kg/injection, schedule: Q04DX003 (ip), vehicle: saline
[11] = dose: 400.0 mg/kg/injection, schedule: Q04DX003 (ip), vehicle: saline

## O=S1(=O)C=C(c2ccccc2)C(c2ccccc2)=C1
dose: 3.12 mg/kg/injection, schedule: Q01DX009 (ip), vehicle: saline with Tween-80
  T/C: 98 % of control
dose: 6.25 mg/kg/injection, schedule: Q01DX009 (ip), vehicle: saline with Tween-80
  T/C: 106 % of control
dose: 12.5 mg/kg/injection, schedule: Q01DX009 (ip), vehicle: saline with Tween-80
  T/C: 101 % of control
dose: 25.0 mg/kg/injection, schedule: Q01DX009 (ip), vehicle: saline with Tween-80
  T/C: 101 % of control and 108 % of control
dose: 25.0 mg/kg/injection, schedule: Q04DX003 (ip), vehicle: Klucel (hydroxypropylcellulose) (HPC)
  T/C: 95 % of control
dose: 50.0 mg/kg/injection, schedule: Q01DX009 (ip), vehicle: saline with Tween-80
  T/C: 95 % of control
dose: 50.0 mg/kg/injection, schedule: Q04DX003 (ip), vehicle: Klucel (hydroxypropylcellulose) (HPC)
  T/C: 102 % of control
dose: 100.0 mg/kg/injection, schedule: Q04DX003 (ip), vehicle: Klucel (hydroxypropylcellulose) (HPC)
  T/C: 118 % of control and 91 % of control

## Cc1ccc(NC(=S)NCCO)cc1C
[1]
  T/C: 98 % of control
[2]
  T/C: 98 % of control
[3]
  T/C: 97 % of control

## CCN(CC)C(=O)Nc1cccc([N+](=O)[O-])c1
[4]
  T/C: 104 % of control
[5]
  T/C: 97 % of control
[6]
  T/C: 101 % of control

## NC(=O)/C=C/C(=O)O
dose: 100.0 mg/kg/injection, schedule: Q01DX001 (ip), vehicle: saline with Tween-80
  T/C: 97 % of control
dose: 100.0 mg/kg/injection, schedule: Q01DX009 (ip), vehicle: saline with Tween-80
  T/C: 98 % of control and 101 % of control
[4]
  T/C: 88 % of control
dose: 100.0 mg/kg/injection, schedule: Q04DX002 (ip), vehicle: saline with Tween-80
  T/C: 94 % of control and 97 % of control
[1]
  T/C: 92 % of control
dose: 200.0 mg/kg/injection, schedule: Q01DX001 (ip), vehicle: saline with Tween-80
  T/C: 108 % of control
dose: 200.0 mg/kg/injection, schedule: Q01DX009 (ip), vehicle: saline with Tween-80
  T/C: 98 % of control and 116 % of control
[5]
  T/C: 88 % of control
dose: 200.0 mg/kg/injection, schedule: Q04DX002 (ip), vehicle: saline with Tween-80
  T/C: 97 % of control and 99 % of control
[2]
  T/C: 106 % of control
dose: 400.0 mg/kg/injection, schedule: Q01DX001 (ip), vehicle: saline with Tween-80
  T/C: 96 % of control
[6]
  T/C: 91 % of control
dose: 400.0 mg/kg/injection, schedule: Q04DX002 (ip), vehicle: saline with Tween-80
  T/C: 90 % of control
[3]
  T/C: 94 % of control

## CS(=O)(=O)CS(C)(=O)=O
dose: 100.0 mg/kg/injection, schedule: Q01DX001 (ip), vehicle: carboxymethylcellulose (CMC)
  T/C: 93 % of control
[7]
  T/C: 94 % of control
[8]
  T/C: 94 % of control
dose: 200.0 mg/kg/injection, schedule: Q01DX001 (ip), vehicle: carboxymethylcellulose (CMC)
  T/C: 93 % of control
[9]
  T/C: 105 % of control
[10]
  T/C: 98 % of control
dose: 400.0 mg/kg/injection, schedule: Q01DX001 (ip), vehicle: carboxymethylcellulose (CMC)
  T/C: 110 % of control
dose: 400.0 mg/kg/injection, schedule: Q01DX009 (ip), vehicle: Klucel (hydroxypropylcellulose) (HPC)
  T/C: 101 % of control
[11]
  T/C: 93 % of control

## COc1cc(C=Nc2cc(Br)c(O)c(Br)c2)ccc1N(CCCl)CCCl
dose: 6.4 mg/kg/injection, schedule: Q01DX009 (ip), vehicle: carboxymethylcellulose (CMC)
  T/C: 101 % of control
dose: 9.8 mg/kg/injection, schedule: Q01DX001 (ip), vehicle: carboxymethylcellulose (CMC)
  T/C: 104 % of control
dose: 14.6 mg/kg/injection, schedule: Q01DX009 (ip), vehicle: carboxymethylcellulose (CMC)
  T/C: 103 % of control and 111 % of control
dose: 22.0 mg/kg/injection, schedule: Q01DX001 (ip), vehicle: carboxymethylcellulose (CMC)
  T/C: 177 % of control
dose: 22.0 mg/kg/injection, schedule: Q01DX009 (ip), vehicle: carboxymethylcellulose (CMC)
  T/C: 94 % of control
dose: 25.0 mg/kg/injection, schedule: Q01DX001 (ip), vehicle: carboxymethylcellulose (CMC)
  T/C: 153 % of control
dose: 50.0 mg/kg/injection, schedule: Q01DX001 (ip), vehicle: carboxymethylcellulose (CMC)
  T/C: 161 % of control

## N=C1c2ccccc2-c2nc3ccccc3c(=Nc3ccccc3C(=O)O)n21
dose: 100.0 mg/kg/injection, schedule: Q04DX002 (ip), vehicle: saline
  T/C: 89 % of control
dose: 200.0 mg/kg/injection, schedule: Q04DX002 (ip), vehicle: saline
  T/C: 86 % of control
dose: 400.0 mg/kg/injection, schedule: Q04DX002 (ip), vehicle: saline
  T/C: 89 % of control

## COCC1OC(n2cnc3c(N(C)C)ncnc32)C(OC)C1OC (stereo not given)
dose: 50.0 mg/kg/injection, schedule: Q01DX005 (ip), vehicle: saline
  T/C: 112 % of control
dose: 100.0 mg/kg/injection, schedule: Q01DX005 (ip), vehicle: saline
  T/C: 102 % of control
dose: 200.0 mg/kg/injection, schedule: Q01DX005 (ip), vehicle: saline
  T/C: 96 % of control

## O=C1CCCCCCCCCCCCCCCO1
[4]
  T/C: 90 % of control
[5]
  T/C: 93 % of control
[6]
  T/C: 93 % of control

## CCCCCCCCCCCC(=O)Nc1ccccc1C(F)(F)F
dose: 100.0 mg/kg/injection, schedule: Q01DX009 (ip), vehicle: acetone
  T/C: 96 % of control
dose: 200.0 mg/kg/injection, schedule: Q01DX009 (ip), vehicle: acetone
  T/C: 95 % of control
dose: 400.0 mg/kg/injection, schedule: Q01DX009 (ip), vehicle: acetone
  T/C: 94 % of control

## CNCCc1cc2c(cc1C=O)OCO2
dose: 75.0 mg/kg/injection, schedule: Q01DX001 (ip), vehicle: saline
  T/C: 96 % of control
dose: 150.0 mg/kg/injection, schedule: Q01DX001 (ip), vehicle: saline
  T/C: 106 % of control

## CSc1ccc(NC(=O)Sc2ccccc2C)cc1
dose: 75.0 mg/kg/injection, schedule: Q01DX001 (ip), vehicle: Klucel (hydroxypropylcellulose) (HPC)
  T/C: 95 % of control
dose: 75.0 mg/kg/injection, schedule: Q01DX009 (ip), vehicle: Klucel (hydroxypropylcellulose) (HPC)
  T/C: 93 % of control and 95 % of control
dose: 75.0 mg/kg/injection, schedule: Q04DX003 (ip), vehicle: Klucel (hydroxypropylcellulose) (HPC)
  T/C: 103 % of control
[7]
  T/C: 95 % of control and 103 % of control
[4]
  T/C: 98 % of control and 105 % of control
dose: 150.0 mg/kg/injection, schedule: Q01DX001 (ip), vehicle: Klucel (hydroxypropylcellulose) (HPC)
  T/C: 94 % of control
dose: 150.0 mg/kg/injection, schedule: Q01DX009 (ip), vehicle: Klucel (hydroxypropylcellulose) (HPC)
  T/C: 101 % of control
dose: 150.0 mg/kg/injection, schedule: Q04DX003 (ip), vehicle: Klucel (hydroxypropylcellulose) (HPC)
  T/C: 87 % of control
[9]
  T/C: 109 % of control
[5]
  T/C: 97 % of control
dose: 300.0 mg/kg/injection, schedule: Q01DX001 (ip), vehicle: Klucel (hydroxypropylcellulose) (HPC)
  T/C: 96 % of control
dose: 300.0 mg/kg/injection, schedule: Q01DX009 (ip), vehicle: Klucel (hydroxypropylcellulose) (HPC)
  T/C: 86 % of control and 88 % of control
dose: 300.0 mg/kg/injection, schedule: Q04DX003 (ip), vehicle: Klucel (hydroxypropylcellulose) (HPC)
  T/C: 91 % of control
[6]
  T/C: 93 % of control and 94 % of control

## O=C1/C(=C\c2ccccc2)C(NC2CCCCC2)c2ccccc21 (stereo not given)
dose: 3.12 mg/kg/injection, schedule: Q01DX009 (ip), vehicle: Klucel (hydroxypropylcellulose) (HPC)
  T/C: 108 % of control
dose: 6.25 mg/kg/injection, schedule: Q01DX009 (ip), vehicle: Klucel (hydroxypropylcellulose) (HPC)
  T/C: 101 % of control
dose: 12.5 mg/kg/injection, schedule: Q01DX009 (ip), vehicle: Klucel (hydroxypropylcellulose) (HPC)
  T/C: 95 % of control

## CN(C)CCOC(=O)COc1ccc(Cl)cc1
dose: 25.0 mg/kg/injection, schedule: Q01DX009 (ip), vehicle: saline
  T/C: 96 % of control
dose: 25.0 mg/kg/injection, schedule: Q04DX003 (ip), vehicle: saline
  T/C: 93 % of control
dose: 50.0 mg/kg/injection, schedule: Q01DX009 (ip), vehicle: saline
  T/C: 100 % of control
dose: 50.0 mg/kg/injection, schedule: Q04DX003 (ip), vehicle: saline
  T/C: 98 % of control
dose: 100.0 mg/kg/injection, schedule: Q01DX009 (ip), vehicle: saline
  T/C: 97 % of control
[8]
  T/C: 90 % of control
dose: 200.0 mg/kg/injection, schedule: Q01DX009 (ip), vehicle: saline
  T/C: 96 % of control
[10]
  T/C: 114 % of control
dose: 400.0 mg/kg/injection, schedule: Q01DX009 (ip), vehicle: saline
  T/C: 96 % of control
[11]
  T/C: 101 % of control
